Reference: PubChem BioAssay AID2243 (The Scripps Research Institute Molecular Screening Center, 2010)
The source made the active and inactive calls. The rule behind the calls is not given here.

System: cytotoxicity counterscreen, ATP luminescence viability
Test: cytotoxicity of test compounds, late-stage follow-up, cytotoxicity control for RBBP9 inhibitor project, cell-based, luminescence (AID 2243)

## C/C(=N\OC(=O)C1CCCCC1)c1nccs1
  CC50: > 100 µM (inactive)
